Assay results as given in PubChem BioAssay AID248 (DTP/NCI, 2004).
Where “and” joins values, the source holds several entries; their conditions need not be identical. Identical values can stand only once. Inconclusive results and toxic doses are left out. Rule as the data show it: active = T/C of 150% or more; inactive = T/C below 125%.

System: L1210 leukemia ip in BDF1 mice, survival T/C
Assay: NCI In Vivo Anticancer Drug Screen. Data for tumor model L1210 Leukemia (intraperitoneal) in B6D2F1 (BDF1) mice
Details: endpoint: mean survival time, higher = longer survival
How it was run: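 Survival endpoint. Drug-treated group vs vehicle group, expressed as T divided by C. Tumor passaged by transplantation.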

[1] = dose: 50.0 mg/kg/injection, schedule: Q01DX009 (ip), vehicle: saline
[2] = dose: 100.0 mg/kg/injection, schedule: Q01DX001 (ip), vehicle: saline
[3] = dose: 100.0 mg/kg/injection, schedule: Q04DX002 (ip), vehicle: Klucel (hydroxypropylcellulose) (HPC)
[4] = dose: 200.0 mg/kg/injection, schedule: Q04DX002 (ip), vehicle: Klucel (hydroxypropylcellulose) (HPC)
[5] = dose: 400.0 mg/kg/injection, schedule: Q04DX002 (ip), vehicle: Klucel (hydroxypropylcellulose) (HPC)
[6] = dose: 100.0 mg/kg/injection, schedule: Q01DX009 (ip), vehicle: Klucel (hydroxypropylcellulose) (HPC)
[7] = dose: 100.0 mg/kg/injection, schedule: Q04DX003 (ip), vehicle: Klucel (hydroxypropylcellulose) (HPC)
[8] = dose: 200.0 mg/kg/injection, schedule: Q01DX009 (ip), vehicle: Klucel (hydroxypropylcellulose) (HPC)
[9] = dose: 200.0 mg/kg/injection, schedule: Q04DX003 (ip), vehicle: Klucel (hydroxypropylcellulose) (HPC)
[10] = dose: 400.0 mg/kg/injection, schedule: Q01DX009 (ip), vehicle: Klucel (hydroxypropylcellulose) (HPC)
[11] = dose: 400.0 mg/kg/injection, schedule: Q04DX003 (ip), vehicle: Klucel (hydroxypropylcellulose) (HPC)
[12] = dose: 100.0 mg/kg/injection, schedule: Q01DX009 (ip), vehicle: saline with Tween-80
[13] = dose: 200.0 mg/kg/injection, schedule: Q01DX009 (ip), vehicle: saline with Tween-80
[14] = dose: 400.0 mg/kg/injection, schedule: Q01DX009 (ip), vehicle: saline with Tween-80
[15] = dose: 200.0 mg/kg/injection, schedule: Q04DX002 (ip), vehicle: saline with Tween-80
[16] = dose: 12.5 mg/kg/injection, schedule: Q01DX009 (ip), vehicle: Klucel (hydroxypropylcellulose) (HPC)
[17] = dose: 25.0 mg/kg/injection, schedule: Q01DX009 (ip), vehicle: Klucel (hydroxypropylcellulose) (HPC)
[18] = dose: 25.0 mg/kg/injection, schedule: Q04DX003 (ip), vehicle: Klucel (hydroxypropylcellulose) (HPC)
[19] = dose: 50.0 mg/kg/injection, schedule: Q04DX003 (ip), vehicle: Klucel (hydroxypropylcellulose) (HPC)
[20] = dose: 100.0 mg/kg/injection, schedule: Q01DX001 (ip), vehicle: Klucel (hydroxypropylcellulose) (HPC)

Measured: T/C

OCC1CC[N-]CC1.OCC1CC[N-]CC1.[Cl][Pt+2]([Cl])([Cl])[Cl]
inactive: dose: 12.5 mg/kg/injection, schedule: Q01DX009 (ip), vehicle: saline 105 % of control | dose: 25.0 mg/kg/injection, schedule: Q01DX009 (ip), vehicle: saline 94 % of control | dose: 25.0 mg/kg/injection, schedule: Q04DX003 (ip), vehicle: saline 94 % of control | [1] 103 % of control | dose: 50.0 mg/kg/injection, schedule: Q04DX003 (ip), vehicle: saline 107 % of control | dose: 100.0 mg/kg/injection, schedule: Q04DX003 (ip), vehicle: saline 104 % of control

CCN1/C(=C/C=C2/SC(=S)N(CC(=O)O)C2=O)Oc2ccccc21
inactive: dose: 50.0 mg/kg/injection, schedule: Q01DX001 (ip), vehicle: saline 100 % of control | [2] 96 % of control | dose: 200.0 mg/kg/injection, schedule: Q01DX001 (ip), vehicle: saline 100 % of control | dose: 400.0 mg/kg/injection, schedule: Q01DX001 (ip), vehicle: saline 106 % of control

Cc1[nH]c2ccccc2c(=O)c1/C=N/NC(N)=S
inactive: [3] 109 % of control | [4] 91 % of control | [5] 98 % of control

CCCCN1C(=O)C/C(=C2\CC(=O)N(CCCC)C2=O)C1=O
inactive: [6] 91 % of control | [7] 87 % of control | [8] 94 % of control | [9] 101 % of control | [10] 91 % of control | [11] 94 % of control

CC(=O)OCC1CCCN1C(C)=O (configuration not stated)
inactive: [1] 101 % of control | dose: 100.0 mg/kg/injection, schedule: Q01DX009 (ip), vehicle: saline 101 % of control | dose: 200.0 mg/kg/injection, schedule: Q01DX009 (ip), vehicle: saline 101 % of control

CCCCNC(=O)Oc1cccc(NC(=O)OC)c1
inactive: [12] 96 % of control | [13] 92 % of control | [14] 105 % of control

O=[N+]([O-])c1cccc(S(=O)(=O)OCC2CO2)c1 (configuration not stated)
inactive: [6] 98 % of control | [8] 104 % of control

Nc1nnnc2c1cnn2C1OC(CO)C(O)C1O (configuration not stated)
inactive: dose: 100.0 mg/kg/injection, schedule: Q01DX001 (ip), vehicle: other 97 % of control | dose: 200.0 mg/kg/injection, schedule: Q01DX001 (ip), vehicle: other 101 % of control | dose: 400.0 mg/kg/injection, schedule: Q01DX001 (ip), vehicle: other 101 % of control

CNC(=O)Nc1c(C)cccc1C
inactive: [6] 93 % of control | [7] 106 % of control | [8] 93 % of control | [9] 101 % of control | [10] 97 % of control | [11] 98 % of control

CCOC(=O)C(=CNc1ccccn1)C(=O)OCC
inactive: [12] 100 % of control | dose: 100.0 mg/kg/injection, schedule: Q04DX003 (ip), vehicle: saline with Tween-80 93 % of control | [13] 104 % of control | dose: 200.0 mg/kg/injection, schedule: Q04DX003 (ip), vehicle: saline with Tween-80 93 % of control | [14] 97 % of control | dose: 400.0 mg/kg/injection, schedule: Q04DX003 (ip), vehicle: saline with Tween-80 97 % of control

Nc1nc(N)c2nc(COc3ccccc3)cnc2n1
inactive: dose: 20.0 mg/kg/injection, schedule: Q01DX009 (ip), vehicle: Klucel (hydroxypropylcellulose) (HPC) 98 % of control | dose: 40.0 mg/kg/injection, schedule: Q01DX009 (ip), vehicle: Klucel (hydroxypropylcellulose) (HPC) 107 % of control | dose: 80.0 mg/kg/injection, schedule: Q01DX009 (ip), vehicle: Klucel (hydroxypropylcellulose) (HPC) 107 % of control

Cc1cc(N(CCCl)CCCl)ccc1C=Nc1cc(Cl)c(O)c(Cl)c1
inactive: dose: 100.0 mg/kg/injection, schedule: Q01DX001 (ip), vehicle: carboxymethylcellulose (CMC) 96 % of control | dose: 200.0 mg/kg/injection, schedule: Q01DX001 (ip), vehicle: carboxymethylcellulose (CMC) 96 % of control | dose: 400.0 mg/kg/injection, schedule: Q01DX001 (ip), vehicle: carboxymethylcellulose (CMC) 105 % of control

COc1ccc(OC)c(NC(=O)Nc2ccc([N+](=O)[O-])cc2OC)c1
inactive: [6] 96 % of control | [8] 93 % of control | [10] 94 % of control

COC(=O)c1ccccc1N=NNc1ccccc1C(=O)OC
inactive: dose: 100.0 mg/kg/injection, schedule: Q04DX002 (ip), vehicle: saline with Tween-80 92 % of control | [7] 107 % of control | [15] 89 % of control | [9] 111 % of control | [11] 98 % of control

S=C=NCC(Br)CBr (configuration not stated)
inactive: dose: 6.25 mg/kg/injection, schedule: Q01DX009 (ip), vehicle: Klucel (hydroxypropylcellulose) (HPC) 104 % of control | [16] 103 % of control | dose: 12.5 mg/kg/injection, schedule: Q04DX003 (ip), vehicle: Klucel (hydroxypropylcellulose) (HPC) 95 % of control | [17] 87 % of control | [18] 105 % of control

Cc1ccccc1CN1CCN(CCOC(c2ccccc2)c2ccccc2Cl)CC1 (configuration not stated)
inactive: [16] 97 % of control | [17] 97 % of control | [18] 107 % of control | dose: 50.0 mg/kg/injection, schedule: Q01DX009 (ip), vehicle: Klucel (hydroxypropylcellulose) (HPC) 102 % of control | [19] 100 % of control | [7] 105 % of control | [9] 100 % of control

CCC12CC3(C(=O)OC)OC1C(O)CN1CCc4c(n3c3cc(OC)ccc43)C12 (configuration not stated)
inactive: dose: 6.25 mg/kg/injection, schedule: Q04DX002 (ip), vehicle: saline with Tween-80 100 % of control | dose: 12.5 mg/kg/injection, schedule: Q04DX002 (ip), vehicle: saline with Tween-80 107 % of control | dose: 25.0 mg/kg/injection, schedule: Q04DX002 (ip), vehicle: saline with Tween-80 103 % of control | dose: 50.0 mg/kg/injection, schedule: Q04DX002 (ip), vehicle: saline with Tween-80 100 % of control and 86 % of control | [15] 89 % of control | dose: 400.0 mg/kg/injection, schedule: Q04DX002 (ip), vehicle: saline with Tween-80 89 % of control

Cc1cc(C)c(F)c(Br)c1N
inactive: [19] 95 % of control | [20] 97 % of control | [7] 95 % of control | dose: 200.0 mg/kg/injection, schedule: Q01DX001 (ip), vehicle: Klucel (hydroxypropylcellulose) (HPC) 101 % of control | [9] 106 % of control | dose: 400.0 mg/kg/injection, schedule: Q01DX001 (ip), vehicle: Klucel (hydroxypropylcellulose) (HPC) 100 % of control

Cc1cc(C)c2ccc(NC(=O)CCC(=O)O)nc2n1
inactive: [2] 95 % of control

O=C1OC(/C=C\c2ccccc2)=NC/1=C\c1cc(Cl)cc(Cl)c1O
inactive: [3] 108 % of control | [4] 112 % of control | [5] 108 % of control

Nc1ccc(CCc2nc(N)[nH]c(=O)c2CCCCc2ccccc2)cc1
inactive: dose: 25.0 mg/kg/injection, schedule: Q01DX001 (ip), vehicle: Klucel (hydroxypropylcellulose) (HPC) 98 % of control | dose: 50.0 mg/kg/injection, schedule: Q01DX001 (ip), vehicle: Klucel (hydroxypropylcellulose) (HPC) 96 % of control | [20] 88 % of control
